Calls of active or inactive are those of the source. The rule behind the calls is not given here.
Columns and labels:
Anastrepha ludens [1] = assay: Effect on fecundity in 7 days old adult female of Anastrepha ludens at 30 mg/g treated with diet after 24 hr in presence of untreated adult male of Anastrepha ludens; type: functional, organism-based
Anastrepha striata [2] = assay: Reduction of fertility in 7 days old adult of Anastrepha striata assessed as reduction of egg hatching at 30 mg/g treated with diet measured after 5 days oviposition; type: functional; parameters: scale not given: the % may be the effect or the level left
Anastrepha ludens [3] = assay: Reduction of fertility in 7 days old adult of Anastrepha ludens assessed as reduction of egg hatching at 10 mg/g treated with diet measured after 9 days oviposition; type: functional; parameters: scale not given: the % may be the effect or the level left
Anastrepha ludens [4] = assay: Reduction of fertility in 7 days old adult of Anastrepha ludens assessed as reduction of egg hatching at 10 mg/g treated with diet measured after 7 days oviposition; type: functional; parameters: scale not given: the % may be the effect or the level left
Anastrepha ludens [5] = assay: Reduction of fertility in 7 days old adult of Anastrepha ludens assessed as reduction of egg hatching at 5 mg/g treated with diet measured after 7 days oviposition; type: functional; parameters: scale not given: the % may be the effect or the level left
Anastrepha ludens [6] = assay: Reduction of fertility in 7 days old adult of Anastrepha ludens assessed as reduction of egg hatching at 5 mg/g treated with diet measured after 5 days oviposition; type: functional; parameters: scale not given: the % may be the effect or the level left
Anastrepha ludens [7] = assay: Reduction of fertility in 7 days old adult of Anastrepha ludens assessed as reduction of egg hatching at 0.1 mg/g treated with diet measured after 5 days oviposition; type: functional; parameters: scale not given: the % may be the effect or the level left
Anastrepha striata [8] = assay: Effect on fecundity in 7 days old adult of Anastrepha striata at 0.1 to 30 mg/g treated with diet after 24 hr; type: functional, organism-based
Anastrepha serpentina [9] = assay: Effect on fecundity in 7 days old adult of Anastrepha serpentina at 0.1 to 30 mg/g treated with diet after 24 hr; type: functional, organism-based
Anastrepha obliqua [10] = assay: Reduction of fertility in 7 days old adult of Anastrepha obliqua assessed as reduction of egg hatching at 10 mg/g treated with diet measured after 1 day oviposition; type: functional; parameters: scale not given: the % may be the effect or the level left
Anastrepha obliqua [11] = assay: Reduction of fertility in 7 days old adult of Anastrepha obliqua assessed as reduction of egg hatching at 5 mg/g treated with diet measured after 7 days oviposition; type: functional; parameters: scale not given: the % may be the effect or the level left
Anastrepha ludens [12] = assay: Reduction of fertility in 7 days old adult of Anastrepha ludens assessed as reduction of egg hatching at 0.1 mg/g treated with diet measured after 9 days oviposition; type: functional; parameters: scale not given: the % may be the effect or the level left
Anastrepha ludens [13] = assay: Reduction of fertility in 7 days old adult of Anastrepha ludens assessed as reduction of egg hatching at 0.1 mg/g treated with diet measured after 7 days oviposition; type: functional; parameters: scale not given: the % may be the effect or the level left
Anastrepha serpentina [14] = assay: Reduction of fertility in 7 days old adult of Anastrepha serpentina assessed as reduction of egg hatching at 0.5 mg/g treated with diet measured after 3 days oviposition; type: functional; parameters: scale not given: the % may be the effect or the level left
Anastrepha serpentina [15] = assay: Reduction of fertility in 7 days old adult of Anastrepha serpentina assessed as reduction of egg hatching at 0.1 mg/g treated with diet measured after 9 days oviposition; type: functional; parameters: scale not given: the % may be the effect or the level left
Anastrepha obliqua [16] = assay: Reduction of fertility in 7 days old adult of Anastrepha obliqua assessed as reduction of egg hatching at 30 mg/g treated with diet measured after 5 days oviposition; type: functional; parameters: scale not given: the % may be the effect or the level left
Anastrepha obliqua [17] = assay: Reduction of fertility in 7 days old adult of Anastrepha obliqua assessed as reduction of egg hatching at 30 mg/g treated with diet measured after 1 day oviposition; type: functional; parameters: scale not given: the % may be the effect or the level left
Anastrepha obliqua [18] = assay: Reduction of fertility in 7 days old adult of Anastrepha obliqua assessed as reduction of egg hatching at 10 mg/g treated with diet measured after 7 days oviposition; type: functional; parameters: scale not given: the % may be the effect or the level left
Anastrepha obliqua [19] = assay: Reduction of fertility in 7 days old adult of Anastrepha obliqua assessed as reduction of egg hatching at 1 mg/g treated with diet measured after 5 days oviposition; type: functional; parameters: scale not given: the % may be the effect or the level left
Anastrepha obliqua [20] = assay: Reduction of fertility in 7 days old adult of Anastrepha obliqua assessed as reduction of egg hatching at 1 mg/g treated with diet measured after 3 days oviposition; type: functional; parameters: scale not given: the % may be the effect or the level left
Anastrepha obliqua [21] = assay: Reduction of fertility in 7 days old adult of Anastrepha obliqua assessed as reduction of egg hatching at 0.5 mg/g treated with diet measured after 7 days oviposition; type: functional; parameters: scale not given: the % may be the effect or the level left
Anastrepha ludens [22] = assay: Reduction of fertility in 7 days old adult of Anastrepha ludens assessed as reduction of egg hatching at 30 mg/g treated with diet measured after 5 days oviposition; type: functional; parameters: scale not given: the % may be the effect or the level left
Anastrepha striata [23] = assay: Reduction of fertility in 7 days old adult of Anastrepha striata assessed as reduction of egg hatching at 5 mg/g treated with diet measured after 3 days oviposition; type: functional; parameters: scale not given: the % may be the effect or the level left
Anastrepha striata [24] = assay: Reduction of fertility in 7 days old adult of Anastrepha striata assessed as reduction of egg hatching at 1 mg/g treated with diet measured after 7 days oviposition; type: functional; parameters: scale not given: the % may be the effect or the level left
Anastrepha striata [25] = assay: Reduction of fertility in 7 days old adult of Anastrepha striata assessed as reduction of egg hatching at 1 mg/g treated with diet measured after 1 day oviposition; type: functional; parameters: scale not given: the % may be the effect or the level left
Anastrepha striata [26] = assay: Reduction of fertility in 7 days old adult of Anastrepha striata assessed as reduction of egg hatching at 0.5 mg/g treated with diet measured after 11 days oviposition; type: functional; parameters: scale not given: the % may be the effect or the level left
Anastrepha striata [27] = assay: Reduction of fertility in 7 days old adult of Anastrepha striata assessed as reduction of egg hatching at 0.1 mg/g treated with diet measured after 9 days oviposition; type: functional; parameters: scale not given: the % may be the effect or the level left
Anastrepha striata [28] = assay: Reduction of fertility in 7 days old adult of Anastrepha striata assessed as reduction of egg hatching at 0.1 mg/g treated with diet measured after 5 days oviposition; type: functional; parameters: scale not given: the % may be the effect or the level left
Anastrepha striata [29] = assay: Reduction of fertility in 7 days old adult of Anastrepha striata assessed as reduction of egg hatching at 0.1 mg/g treated with diet measured after 3 days oviposition; type: functional; parameters: scale not given: the % may be the effect or the level left
Anastrepha serpentina [30] = assay: Reduction of fertility in 7 days old adult of Anastrepha serpentina assessed as reduction of egg hatching at 10 mg/g treated with diet measured after 11 days oviposition; type: functional; parameters: scale not given: the % may be the effect or the level left
Anastrepha serpentina [31] = assay: Reduction of fertility in 7 days old adult of Anastrepha serpentina assessed as reduction of egg hatching at 10 mg/g treated with diet measured after 9 days oviposition; type: functional; parameters: scale not given: the % may be the effect or the level left
Anastrepha serpentina [32] = assay: Reduction of fertility in 7 days old adult of Anastrepha serpentina assessed as reduction of egg hatching at 10 mg/g treated with diet measured after 1 day oviposition; type: functional; parameters: scale not given: the % may be the effect or the level left
Anastrepha serpentina [33] = assay: Reduction of fertility in 7 days old adult of Anastrepha serpentina assessed as reduction of egg hatching at 5 mg/g treated with diet measured after 11 days oviposition; type: functional; parameters: scale not given: the % may be the effect or the level left
Anastrepha serpentina [34] = assay: Reduction of fertility in 7 days old adult of Anastrepha serpentina assessed as reduction of egg hatching at 5 mg/g treated with diet measured after 9 days oviposition; type: functional; parameters: scale not given: the % may be the effect or the level left
Anastrepha serpentina [35] = assay: Reduction of fertility in 7 days old adult of Anastrepha serpentina assessed as reduction of egg hatching at 5 mg/g treated with diet measured after 3 days oviposition; type: functional; parameters: scale not given: the % may be the effect or the level left
Anastrepha serpentina [36] = assay: Reduction of fertility in 7 days old adult of Anastrepha serpentina assessed as reduction of egg hatching at 1 mg/g treated with diet measured after 3 days oviposition; type: functional; parameters: scale not given: the % may be the effect or the level left
Anastrepha serpentina [37] = assay: Reduction of fertility in 7 days old adult of Anastrepha serpentina assessed as reduction of egg hatching at 0.5 mg/g treated with diet measured after 7 days oviposition; type: functional; parameters: scale not given: the % may be the effect or the level left
Anastrepha striata [38] = assay: Reduction of fertility in 7 days old adult of Anastrepha striata assessed as reduction of egg hatching at 10 mg/g treated with diet measured after 7 days oviposition; type: functional; parameters: scale not given: the % may be the effect or the level left
Anastrepha obliqua [39] = assay: Effect on fertility in 7 days old adult female of Anastrepha obliqua at 30 mg/g treated with diet after 24 hr in presence of untreated adult male of Anastrepha obliqua; type: functional, organism-based
Anastrepha serpentina [40] = assay: Effect on fecundity in 7 days old adult male of Anastrepha serpentina at 30 mg/g treated with diet after 24 hr in presence of untreated adult female of Anastrepha serpentina; type: functional, organism-based
Anastrepha striata [41] = assay: Effect on fecundity in 7 days old adult female of Anastrepha striata at 30 mg/g treated with diet after 24 hr in presence of untreated adult male of Anastrepha striata; type: functional, organism-based

**Q.** `O=C(NC(=O)c1c(F)cccc1F)Nc1cc(Cl)c(OC(F)(F)C(F)C(F)(F)F)cc1Cl` (racemic) [LUFENURON] was tested. Which Activity (Anastrepha ludens [1]) did it give?
**A.** inactive

**Q.** What about the Activity (Anastrepha striata [2]) of the same compound?
**A.** 4%

**Q.** And the Activity (Anastrepha ludens [3])?
**A.** 14.7%

**Q.** And the Activity (Anastrepha ludens [4])?
**A.** 13.3%

**Q.** And the Activity (Anastrepha ludens [5])?
**A.** 28%

**Q.** What about the Activity (Anastrepha ludens [6]) of the same compound?
**A.** 20%

**Q.** And the Activity (Anastrepha ludens [7])?
**A.** 30.7%

**Q.** What about the Activity (Anastrepha striata [8]) of the same compound?
**A.** Active

**Q.** And the Activity (Anastrepha serpentina [9])?
**A.** Active

**Q.** What about the Activity (Anastrepha obliqua [10]) of the same compound?
**A.** 0%

**Q.** And the Activity (Anastrepha obliqua [11])?
**A.** 0%

**Q.** What about the Activity (Anastrepha ludens [12]) of the same compound?
**A.** 44.7%

**Q.** And the Activity (Anastrepha ludens [13])?
**A.** 43.3%

**Q.** What about the Activity (Anastrepha serpentina [14]) of the same compound?
**A.** 87.3%

**Q.** What about the Activity (Anastrepha serpentina [15]) of the same compound?
**A.** 81.7%

**Q.** And the Activity (Anastrepha obliqua [16])?
**A.** 0%

**Q.** What about the Activity (Anastrepha obliqua [17]) of the same compound?
**A.** 0%

**Q.** What about the Activity (Anastrepha obliqua [18]) of the same compound?
**A.** 1.3%

**Q.** What about the Activity (Anastrepha obliqua [19]) of the same compound?
**A.** 0%

**Q.** And the Activity (Anastrepha obliqua [20])?
**A.** 0%

**Q.** What about the Activity (Anastrepha obliqua [21]) of the same compound?
**A.** 0.7%

**Q.** And the Activity (Anastrepha ludens [22])?
**A.** 4%

**Q.** And the Activity (Anastrepha striata [23])?
**A.** 4.7%

**Q.** And the Activity (Anastrepha striata [24])?
**A.** 1.3%

**Q.** What about the Activity (Anastrepha striata [25]) of the same compound?
**A.** 6.7%

**Q.** What about the Activity (Anastrepha striata [26]) of the same compound?
**A.** 28.7%

**Q.** And the Activity (Anastrepha striata [27])?
**A.** 70.7%

**Q.** What about the Activity (Anastrepha striata [28]) of the same compound?
**A.** 60.7%

**Q.** What about the Activity (Anastrepha striata [29]) of the same compound?
**A.** 80%

**Q.** And the Activity (Anastrepha serpentina [30])?
**A.** 79.3%

**Q.** And the Activity (Anastrepha serpentina [31])?
**A.** 85.3%

**Q.** What about the Activity (Anastrepha serpentina [32]) of the same compound?
**A.** 18.3%

**Q.** And the Activity (Anastrepha serpentina [33])?
**A.** 86.7%

**Q.** And the Activity (Anastrepha serpentina [34])?
**A.** 83.3%

**Q.** What about the Activity (Anastrepha serpentina [35]) of the same compound?
**A.** 58.9%

**Q.** And the Activity (Anastrepha serpentina [36])?
**A.** 71.1%

**Q.** And the Activity (Anastrepha serpentina [37])?
**A.** 86.7%

**Q.** And the Activity (Anastrepha striata [38])?
**A.** 0%

**Q.** And the Activity (Anastrepha obliqua [39])?
**A.** inactive

**Q.** And the Activity (Anastrepha serpentina [40])?
**A.** inactive

**Q.** And the Activity (Anastrepha striata [41])?
**A.** inactive

Reference: ChEMBL document CHEMBL3045535, “Evaluation of lufenuron as a chemosterilant against fruit flies of the genus Anastrepha (Diptera: Tephritidae)” (2010)
